Melting point, Ki and IC50 data for 13 compounds are collected here from patent publication US6337326B1, “N-aryl-(homopiperazinyl)-cyclohexyl amines” (American Home Products Corporation, priority 1999, dated 2002).

As a reminder, the melting point is the temperature, or range, at which the solid turns liquid. A word on the Ki: it is the equilibrium dissociation constant of an inhibitor or competing ligand from its target. High values mean weaker binding, low ones tighter binding. Broadly, the IC50 is the concentration that gives 50% inhibition. The low end stands for greater potency, the high end for weaker potency.

The structures appear in SMILES notation. Structures can show the parent of a compound that is named as a salt.

The target in one series is T1, 5-HT transporter (Rattus norvegicus, UniProt P31652).
T1 construct: from tissue; host or cells: frontal cortical membranes of male Sprague-Dawley rats
T1 sequence (P31652 whole entry): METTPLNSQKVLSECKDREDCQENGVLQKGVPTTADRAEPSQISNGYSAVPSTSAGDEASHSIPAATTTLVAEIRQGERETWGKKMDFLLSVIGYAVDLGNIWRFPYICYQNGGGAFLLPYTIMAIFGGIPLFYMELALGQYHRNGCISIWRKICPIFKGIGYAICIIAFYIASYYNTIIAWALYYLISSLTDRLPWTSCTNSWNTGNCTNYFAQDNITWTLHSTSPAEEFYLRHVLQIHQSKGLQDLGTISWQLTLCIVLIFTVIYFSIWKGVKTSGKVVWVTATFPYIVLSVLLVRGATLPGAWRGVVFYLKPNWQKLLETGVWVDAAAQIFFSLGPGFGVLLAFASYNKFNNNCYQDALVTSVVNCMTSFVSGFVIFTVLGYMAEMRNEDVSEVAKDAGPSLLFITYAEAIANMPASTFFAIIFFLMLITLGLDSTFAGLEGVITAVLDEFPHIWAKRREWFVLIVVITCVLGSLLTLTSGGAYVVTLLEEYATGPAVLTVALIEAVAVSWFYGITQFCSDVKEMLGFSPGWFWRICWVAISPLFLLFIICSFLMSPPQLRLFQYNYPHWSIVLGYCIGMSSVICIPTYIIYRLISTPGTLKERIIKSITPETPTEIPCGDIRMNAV
Briefly: Rat Brain 3H-Paroxetine Binding Assay (RB 5HT Transporter). As to conditions: frontal cortical membranes from male S.D. rats, 3H-paroxetine 0.1 nM, 60 min, 25° C. Here is the method: Rat Brain ^3H-Paroxetine Binding Assay (RB 5HT Transporter)
The following assay was used to determine a compound's affinity of the 5-HT transporter.
A protocol similar to that used by Cheetham et. al. (Neuropharmacol. 1993, 32, 737) was used. Briefly, frontal cortical membranes prepared from male S.D. rats were incubated with ^3H-parxetine (0.1 nM) for 60 min. at 25° C. All tubes also contained either vehicle, test compound (one to eight concentrations), or a saturating concentration of fluoxetine (10 μM) to define […]. All reactions are terminated by the addition of ice cold Tris buffer followed by rapid filtration using a Tom Tech filtration device to separate bound from free ^3H-paroxetine. Bound radioactivity was quantitated using a Wallac 1205 Beta Plate® counter. Nonlinear regression analysis was used to determine IC50 values which were converted to Ki values using the method of Cheng and Prusoff (Biochem. Pharmacol. 1973, 22, 3099); [formula]

The next series deals with T2, Human 5-HT Transporter (Homo sapiens, UniProt P31645).
T2 construct: endogenous in cells; host or cells: Jar cells (human carcinoma cell line), treated with staurosporine
T2 sequence (P31645 whole entry): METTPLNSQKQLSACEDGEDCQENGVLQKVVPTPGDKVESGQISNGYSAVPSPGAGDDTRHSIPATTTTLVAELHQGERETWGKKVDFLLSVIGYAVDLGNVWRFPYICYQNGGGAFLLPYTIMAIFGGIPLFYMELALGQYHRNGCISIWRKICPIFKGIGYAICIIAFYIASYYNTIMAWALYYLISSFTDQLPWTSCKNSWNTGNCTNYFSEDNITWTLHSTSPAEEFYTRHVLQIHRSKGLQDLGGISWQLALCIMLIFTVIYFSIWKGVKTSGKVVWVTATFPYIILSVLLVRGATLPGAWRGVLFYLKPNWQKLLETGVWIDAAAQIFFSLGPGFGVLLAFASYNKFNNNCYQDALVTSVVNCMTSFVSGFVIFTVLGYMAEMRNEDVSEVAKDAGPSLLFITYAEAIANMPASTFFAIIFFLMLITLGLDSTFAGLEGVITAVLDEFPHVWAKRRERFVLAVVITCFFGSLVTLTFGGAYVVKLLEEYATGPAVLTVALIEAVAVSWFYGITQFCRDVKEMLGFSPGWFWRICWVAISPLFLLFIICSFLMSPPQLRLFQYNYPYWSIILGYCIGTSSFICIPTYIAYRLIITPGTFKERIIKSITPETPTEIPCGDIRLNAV
Description: Inhibition of 3H-5-HT Uptake by cells Possessing the Human 5-HT Transporter (HC 5-HT Transporter). As to conditions: Jar cells (human carcinoma) treated with staurosporine, 37° C., 5 min. The series is classed as cell-based. Here is the method:
[Staurosporine greatly increases the expression of the 5-HT-transporter.] On the day of assay, vehicle, excess of fluoxetine, or test compound is added to various wells on the plate. All wells then receive ^3H-5-HT and are incubated at 37° C. for 5 min. The wells are then washed with ice cold 50 mM Tris HCl (pH 7.4) buffer and aspirated to remove free ^3H-5-HT. 25 μl of 0.25 M NaOH is then added to each well to lyse the cells and 75 μl scintillation cocktail (Microscint™ 20) added prior to quantitation on a Packard TopCount machine. Tubes with vehicle represent total possible uptake, radioactivity counted in tubes with fluoxetine represent nonspecific binding/uptake and is subtracted from the total possible uptake to give total possible specific uptake. This nonspecific binding (usual low in number) is then subtracted from the counts obtained in wells with various test compounds (or different concentrations of test drug) to give specific uptake in the presence of drug. Specific uptake is then expressed as a % of control values and is analyzed using nonlinear regression analysis (Prizm) to determine IC50 values. If the compound is active at inhibiting 5-HT uptake, its counts will be close to that obtained with fluoxetine.

`COc1ccccc1N1CCCN(C2CCC(c3c[nH]c4ccccc34)CC2)CC1` (stereo not shown) (as salt: hydrochloride) [Example 1, 3-{4-[4-(2-Methoxy-phenyl)-[1,4]diazepan-1-yl]-cyclohexyl}-1H-indole]: the melting point lay in the range of 148 to 160 °C.

`c1cnc2c(N3CCCN(C4CCC(c5c[nH]c6ccccc56)CC4)CC3)cccc2c1` (stereo not shown) (as salt: hydrochloride) [Example 2, 8-{4-[4-(1H-Indol-3-yl)-cyclohexyl]-[1,4]diazepan-1-yl}-quinoline] yielded a melting point of 152 to 165 °C.

The compound `COc1ccccc1N1CCCN(C2CCC(c3c[nH]c4ccccc34)CC2)CC1` (stereo not shown) [Example 1, 3-{4-[4-(2-Methoxy-phenyl)-[1,4]diazepan-1-yl]-cyclohexyl}-1H-indole] gave a Ki at 5-HT transporter of 42 nM. At Human 5-HT Transporter, this compound registered a half-maximal inhibitory concentration (IC50) of 578 nM.

As to `c1cnc2c(N3CCCN(C4CCC(c5c[nH]c6ccccc56)CC4)CC3)cccc2c1` (stereo not shown) [Example 2, 8-{4-[4-(1H-Indol-3-yl)-cyclohexyl]-[1,4]diazepan-1-yl}-quinoline], the affinity at 5-HT transporter corresponds to a Ki of 9 nM. On Human 5-HT Transporter, this compound returned an IC50 of 399 nM.

`COc1ccccc1N1CCCN(C2CCC(c3c[nH]c4ccc(F)cc34)CC2)CC1` (stereo not shown) [Example 3, 3-{4-[4-(2-Methoxy-phenyl)-[1,4]diazepan-1-yl]-cyclohexyl}-5-fluoro-1H-indole]: on 5-HT transporter, the inhibitory constant (Ki) came to 12 nM. Besides, the midpoint of inhibition at Human 5-HT Transporter, the IC50, lay at 1140 nM.

For the compound `COc1ccccc1N1CCCN(C2CCC(c3c[nH]c4ccc(C#N)cc34)CC2)CC1` (stereo not shown) [Example 4], the affinity at 5-HT transporter corresponds to a Ki of 27 nM.

With `COc1ccccc1N1CCCN(C2CCC(c3c[nH]c4cc(F)ccc34)CC2)CC1` (stereo not shown) [Example 5, 3-{4-[4-(2-Methoxy-phenyl)-[1,4]diazepan-1-yl]-cyclohexyl}-6-fluoro-1H-indole], affinity at 5-HT transporter was put at a Ki of 4.9 nM. On Human 5-HT Transporter, this compound showed an IC50 of 272 nM.

As to `Fc1ccc2[nH]cc(C3CCC(N4CCCN(c5cccc6cccnc56)CC4)CC3)c2c1` (stereo not shown) [Example 6, 8-{4-[4-(5-Fluoro-1H-indol-3-yl)-cyclohexyl]-[1,4]diazepan-1-yl}-quinoline], at 5-HT transporter, the affinity corresponds to a Ki of 9 nM. In addition, on Human 5-HT Transporter, it took 602 nM to reach half-maximal inhibition (IC50).

`N#Cc1ccc2[nH]cc(C3CCC(N4CCCN(c5cccc6cccnc56)CC4)CC3)c2c1` (stereo not shown) [Example 7, 8-{4-[4-(5-Cyano-1H-indol-3-yl)-cyclohexyl]-[1,4]diazepan-1-yl}-quinoline]: at 5-HT transporter, the Ki stood at 11 nM.

As to `Fc1ccc2c(C3CCC(N4CCCN(c5cccc6cccnc56)CC4)CC3)c[nH]c2c1` (stereo not shown) [Example 8, 8-{4-[4-(6-Fluoro-1H-indol-3-yl)-cyclohexyl]-[1,4]diazepan-1-yl}-quinoline], on 5-HT transporter, the inhibition constant (Ki) turned out to be 2.7 nM. On Human 5-HT Transporter, this compound yielded an IC50 of 317 nM.

Consider `Fc1ccc2[nH]cc(C3CCC(N4CCCN(c5cccc(C(F)(F)F)c5)CC4)CC3)c2c1` (stereo not shown) [Example 9, 3-{4-[4-(3-Trifluoromethyl-phenyl)-[1,4]diazepan-1-yl]-cyclohexyl}-5-fluoro-1H-indole], for which, on 5-HT transporter, the inhibitory constant (Ki) is 86 nM. Also, inhibition on Human 5-HT Transporter was half-maximal at 4470 nM (IC50).

As to `N#Cc1ccc2[nH]cc(C3CCC(N4CCCN(c5cccc(C(F)(F)F)c5)CC4)CC3)c2c1` (stereo not shown) [Example 10], the affinity on 5-HT transporter, expressed as Ki, was 207 nM. At Human 5-HT Transporter, this compound displayed a concentration for half-maximal inhibition (IC50) of 3760 nM.

As to `Fc1ccc2c(C3CCC(N4CCCN(c5cccc(C(F)(F)F)c5)CC4)CC3)c[nH]c2c1` (stereo not shown) [Example 11, 3-{4-[4-(3-Trifluoromethyl-phenyl)-[1,4]diazepan-1-yl]-cyclohexyl}-6-fluoro-1H-indole], the Ki on 5-HT transporter was determined as 27 nM. This compound had a concentration for half-maximal inhibition (IC50) on Human 5-HT Transporter of 1280 nM.
